According to patent publication US20130302888A1, “CELL CULTURE METHOD AND SYSTEM FOR ESTABLISHING AN IN VITRO MODEL OF THE INTESTINAL BARRIER” (GATTEFOSSE SAS, priority 2011, published 2013):

Columns and labels:
[1] = test system: Caco-2/HT29-MTX cocultures
HT29-MTX monolayers = conditions: pH 7.4

Lucifer yellow [LY]
Papp, effect of adding HT29-MTX to Caco-2 cells [1]: drastically increases the Papp
Papp (HT29-MTX monolayers): 2-3 10^−6 cm/s
